Tests used:
[1] = biological target: T1, Edg-7 (Homo sapiens, UniProt Q9UBY5); experiment: Calcium mobilization assay (FLIPR), HTC cells expressing Edg 7; assay type: cell-based
T1 construct: expressed in transfected cells; host or cells: HTC rat hepatoma cells (from the earlier reading)
T1 sequence (Q9UBY5 1-353): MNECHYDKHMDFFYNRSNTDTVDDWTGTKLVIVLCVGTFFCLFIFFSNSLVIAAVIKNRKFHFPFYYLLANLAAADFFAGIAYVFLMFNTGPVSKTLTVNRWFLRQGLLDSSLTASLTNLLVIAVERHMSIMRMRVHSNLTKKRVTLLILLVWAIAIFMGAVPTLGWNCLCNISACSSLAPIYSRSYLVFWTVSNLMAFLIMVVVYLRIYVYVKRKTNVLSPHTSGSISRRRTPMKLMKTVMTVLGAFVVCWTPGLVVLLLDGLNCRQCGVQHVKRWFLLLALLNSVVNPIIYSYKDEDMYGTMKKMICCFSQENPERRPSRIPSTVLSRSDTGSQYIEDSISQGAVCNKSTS

[2] = biological target: T2, Edg-3 (Homo sapiens, UniProt Q99500); experiment: Calcium mobilization assay (FLIPR), HTC cells expressing Edg 3; assay type: cell-based; conditions: agonist
T2 construct: expressed in transfected cells; host or cells: HTC rat hepatoma cells (from the earlier reading)

[3] = Calcium mobilization assay, Null; assay type: cell-based; conditions: agonist
Description: (§1) LPA receptors such as Edg-4, couple to calcium effector pathways, and result in increases in intracellular calcium following receptor activation (An et al., Molecular Pharmacology, 54:881-888, 1998, incorporated herein by reference). This biological response lends itself to a very efficient, high-throughput screen using a Fluorescence Imaging Plate Reader (FLIPR; Molecular Devices, Sunnyvale, Calif.). The FLIPR system is a real-time, cell-based assay system with continuous fluorescence detection using a cooled CCD camera. The FLIPR system was used to developing an Edg-4 receptor screen. Rat hepatoma cells stably expressing Edg-4 receptor were plated on 384-well plates and loaded with a calcium dye loading kit (Molecular Devices, Sunnyvale, Calif.) for 1 hour at room temperature. Cells were then placed on the FLIPR^354 (Molecular Devices, Sunnyvale, Calif.) and excited by an argon laser at 488 nm. The data for the entire 384-well plate was updated every second. An integrated robotic pipettor allowed for simultaneous compound addition into each individual well in the plate.

[4] = biological target: T3, Edg-2 (Homo sapiens, UniProt Q92633); experiment: Calcium mobilization assay (FLIPR), HTC cells expressing Edg 2; assay type: cell-based; conditions: agonist
T3 construct: expressed in transfected cells; host or cells: HTC rat hepatoma cells (from the earlier reading)

[5] = biological target: T4, Edg-5 (Homo sapiens, UniProt O95136); experiment: Calcium mobilization assay (FLIPR), HTC cells expressing Edg 5; assay type: cell-based; conditions: agonist
T4 construct: expressed in transfected cells; host or cells: HTC rat hepatoma cells (from the earlier reading)

[6] = biological target: T5, Edg-6 (Homo sapiens, UniProt O95977); experiment: Calcium mobilization assay (FLIPR), HTC cells expressing Edg 6; assay type: cell-based; conditions: agonist
T5 construct: expressed in transfected cells; host or cells: HTC rat hepatoma cells (from the earlier reading)
T5 sequence (O95977 1-384): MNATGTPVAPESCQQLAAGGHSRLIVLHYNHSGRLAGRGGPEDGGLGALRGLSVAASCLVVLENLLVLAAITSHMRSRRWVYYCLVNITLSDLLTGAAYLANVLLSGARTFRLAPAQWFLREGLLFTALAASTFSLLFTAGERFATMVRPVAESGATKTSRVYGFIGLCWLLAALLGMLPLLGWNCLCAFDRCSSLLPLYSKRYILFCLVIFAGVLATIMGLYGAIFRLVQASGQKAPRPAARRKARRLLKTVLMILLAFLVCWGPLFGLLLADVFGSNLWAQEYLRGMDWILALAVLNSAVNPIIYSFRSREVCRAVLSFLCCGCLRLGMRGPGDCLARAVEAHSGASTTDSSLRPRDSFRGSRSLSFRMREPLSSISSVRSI

[7] = biological target: T6, Edg-8 (Homo sapiens, UniProt Q9H228); experiment: Calcium mobilization assay (FLIPR), HTC cells expressing Edg 8; assay type: cell-based; conditions: agonist
T6 construct: expressed in transfected cells; host or cells: HTC rat hepatoma cells (from the earlier reading)

[8] = test system: CaOV3 human ovarian cancer cells; experiment: Calcium response in CaOV3 cells; assay type: cell-based; conditions: CaOV3, naturally express human Edg-4, FIG. 16
[9] = biological target: T7, Edg-1 (Homo sapiens, UniProt P21453); experiment: Calcium mobilization assay (FLIPR), HTC cells expressing Edg 1; assay type: cell-based; conditions: agonist
T7 construct: expressed in transfected cells; host or cells: HTC rat hepatoma cells (from the earlier reading)

[10] = biological target: T8, human Edg-4 receptor (Homo sapiens, UniProt Q9HBW0); experiment: Calcium mobilization assay (FLIPR), HTC rat hepatoma cells transfected with human Edg-4; assay type: cell-based
T8 construct: IC50 Edg-4; other: agonist, calcium mobilization; potency relative to compound 101; calcium response (agonist)
Description: as §1

[11] = test system: human Edg-4 receptor; experiment: as above; assay type: cell-based; conditions: agonists; Edg-4 relative to other Edg receptors
Description: as §1

[12] = test system: human ovarian tumor growth within the chamber; experiment: In vivo Z-chamber study; parameters: species or system rat; conditions: rats, 5 mg/kg every other day, harvested day 16, FIG. 14
Description: The Z-chamber assay is a fibrin-based in vivo assay, wherein fibrin and thrombin are added through a port in a two-sided chamber sealed by a nylon mesh. The chamber is implanted in the subcutaneous space of an animal and harvested for evaluation. Fibrin matrices are formed in normal wound healing and are used by tumors to sustain growth, thus Z-chambers are designed to study, for example, angiogenesis, wound healing, and tumor growth. In addition, their design is useful, for example, in studies of localized gene expression, stem cell, adenoviral, and tissue generation.
The efficacy of 101 in an in vivo tumor model was examined by Z-chamber® (SRI, Menlo Park, Calif.) study. Each tumor chamber consisted of 150-160 μl cell suspension made by suspending 190 million cells in 20 ml fibrin (4 mg/ml). Following the introduction of cell suspension, 2 units of thrombin was added into each chamber and the mixture was allowed to gel for 5-7 minutes before implantation.
Rats were anesthetized with Nembutal (35 mg/kg). The skin of rats was surgically prepared with 70% alcohol. […]
101 was dissolved in a 1 to 1 cremophor:ethanol solution and diluted 4 times with 5% dextrose on water. […] The tumor thickness was measured and compared to a negative control, i.e., chambers with no treatment, and the positive treatment. […]

T8 sequence (Q9HBW0 1-340 limits assumed): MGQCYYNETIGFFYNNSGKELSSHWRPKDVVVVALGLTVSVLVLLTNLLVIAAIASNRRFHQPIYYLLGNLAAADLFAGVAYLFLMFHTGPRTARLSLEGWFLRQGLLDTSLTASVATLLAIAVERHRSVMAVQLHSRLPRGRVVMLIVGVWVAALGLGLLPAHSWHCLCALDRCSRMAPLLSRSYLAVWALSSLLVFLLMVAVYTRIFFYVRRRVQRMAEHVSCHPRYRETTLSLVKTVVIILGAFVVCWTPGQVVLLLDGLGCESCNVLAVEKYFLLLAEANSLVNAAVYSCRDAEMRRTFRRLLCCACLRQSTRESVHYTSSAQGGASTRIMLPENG
T6 sequence (Q9H228 whole entry): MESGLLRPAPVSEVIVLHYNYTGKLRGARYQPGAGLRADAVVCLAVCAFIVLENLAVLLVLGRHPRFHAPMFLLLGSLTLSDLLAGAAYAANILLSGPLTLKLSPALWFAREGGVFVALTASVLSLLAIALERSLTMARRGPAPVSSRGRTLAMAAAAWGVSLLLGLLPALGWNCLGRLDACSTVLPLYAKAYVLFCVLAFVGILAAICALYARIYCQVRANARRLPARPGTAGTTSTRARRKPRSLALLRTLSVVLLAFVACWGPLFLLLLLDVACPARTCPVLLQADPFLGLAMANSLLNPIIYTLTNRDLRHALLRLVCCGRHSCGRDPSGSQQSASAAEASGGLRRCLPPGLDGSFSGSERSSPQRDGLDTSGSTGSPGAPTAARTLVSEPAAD
T7 sequence (P21453 whole entry): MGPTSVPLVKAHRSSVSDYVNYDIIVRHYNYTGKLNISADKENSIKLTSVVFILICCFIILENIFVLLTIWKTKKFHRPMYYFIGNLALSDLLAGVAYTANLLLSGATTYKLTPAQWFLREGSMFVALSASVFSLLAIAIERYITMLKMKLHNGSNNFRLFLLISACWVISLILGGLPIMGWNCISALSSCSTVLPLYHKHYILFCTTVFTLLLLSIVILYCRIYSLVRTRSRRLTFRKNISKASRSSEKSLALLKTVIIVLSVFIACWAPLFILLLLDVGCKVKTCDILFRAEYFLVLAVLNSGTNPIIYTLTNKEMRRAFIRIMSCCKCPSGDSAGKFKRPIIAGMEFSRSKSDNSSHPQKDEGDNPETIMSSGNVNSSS
T3 sequence (Q92633 whole entry): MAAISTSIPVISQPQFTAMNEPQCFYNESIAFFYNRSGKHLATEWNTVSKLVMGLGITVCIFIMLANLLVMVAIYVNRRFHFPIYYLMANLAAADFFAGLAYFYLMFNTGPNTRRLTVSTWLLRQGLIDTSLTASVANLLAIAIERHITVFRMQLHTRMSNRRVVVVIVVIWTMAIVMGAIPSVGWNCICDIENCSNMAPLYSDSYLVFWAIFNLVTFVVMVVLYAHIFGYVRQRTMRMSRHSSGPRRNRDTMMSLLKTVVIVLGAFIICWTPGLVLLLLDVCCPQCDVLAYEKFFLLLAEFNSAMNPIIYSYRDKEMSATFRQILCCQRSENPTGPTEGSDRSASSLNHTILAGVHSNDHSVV
T4 sequence (O95136 whole entry): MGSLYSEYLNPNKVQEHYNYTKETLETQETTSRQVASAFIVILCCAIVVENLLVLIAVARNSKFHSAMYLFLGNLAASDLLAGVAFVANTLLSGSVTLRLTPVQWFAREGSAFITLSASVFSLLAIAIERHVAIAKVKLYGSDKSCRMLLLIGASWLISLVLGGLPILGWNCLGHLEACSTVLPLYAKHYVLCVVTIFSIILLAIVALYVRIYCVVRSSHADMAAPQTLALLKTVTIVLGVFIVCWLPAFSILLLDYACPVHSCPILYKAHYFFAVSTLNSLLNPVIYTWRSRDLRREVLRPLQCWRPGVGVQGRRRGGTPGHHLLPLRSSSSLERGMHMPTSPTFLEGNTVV
T2 sequence (Q99500 whole entry): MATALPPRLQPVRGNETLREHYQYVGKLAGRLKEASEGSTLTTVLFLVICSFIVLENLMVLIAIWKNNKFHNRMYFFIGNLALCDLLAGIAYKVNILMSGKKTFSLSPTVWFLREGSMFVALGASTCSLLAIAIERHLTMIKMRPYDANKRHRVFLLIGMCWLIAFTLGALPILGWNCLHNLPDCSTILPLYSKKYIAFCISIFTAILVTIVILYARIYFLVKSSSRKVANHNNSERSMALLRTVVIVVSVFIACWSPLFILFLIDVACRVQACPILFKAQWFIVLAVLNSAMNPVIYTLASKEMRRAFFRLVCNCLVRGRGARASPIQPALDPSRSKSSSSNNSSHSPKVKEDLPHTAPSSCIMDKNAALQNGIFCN

## COc1cc2c(cc1OC)C(c1c(Cl)cccc1Cl)NC(=O)C2 (centres unmarked) [Compound 125, 1-(2,6-dichlorophenyl)-6,7-dimethoxy-1,4-dihydro-2H-isoguinolin-3-one]
[1]
  agonist activity at the Edg-7 receptor: acts as an agonist
[1]; agonist, calcium mobilization
  EC50: 2.5 µM
[2]
  EC50: > 25 µM
[3]
  EC50: > 25 µM
[4]
  EC50: > 25 µM
[5]
  EC50: > 25 µM
[6]
  EC50: > 25 µM
[7]
  EC50: > 25 µM
[8]
  calcium response elicited by 125, inhibited by antagonist 103: specificity is also observed
[9]
  EC50: > 25 µM
[10]; HTC cells transfected with human Edg-4, FIG. 15
  calcium response (agonist): elicits a calcium response
[10]; agonist, calcium mobilization
  EC50: 5.2 µM
[11]
  Fold Selectivity for Edg-4 (EC50): >4.8

## CC(=O)O[C@H]1C(=O)[C@@]2(C)[C@H]([C@H](OC(=O)c3ccccc3)[C@]3(O)C[C@H](OC(=O)[C@H](O)[C@@H](NC(=O)c4ccccc4)c4ccccc4)C(C)=C1C3(C)C)[C@]1(OC(C)=O)CO[C@@H]1C[C@@H]2O [Taxol]
[12]
  inhibition of tumor growth (positive control): inhibition of tumor growth
